# In patent US8476197B2, “Aminopropenoates as fungicides” (priority 2009, dated 2013):
# Marks after values point to notes of the source that are not given here.
# Details: pH 2.3
row,Compound,Log P
1,CCOC(=O)C(C#N)=C(NC(C)C(C)C)c1cccnc1 (stereo not shown) [Compound 1504],2.61
2,COC(=O)C(C#N)=C(NC(C)c1nccs1)c1sc(C)nc1C(F)(F)F (stereo not shown) [Compound 17],2.66

# Same assay, conditions: pH 2.7
row,Compound,Log P
1,CCOC(=O)C(C#N)=C(NC(C)C(C)C)c1cnn(C)c1Cl (stereo not shown) [Compound 1485],3.25^[a]
2,CCOC(=O)C(C#N)=C(Nc1ccc(OC)cc1)c1sccc1Br [Compound 488],3.55^[a]
3,C=CCCCC(C=C)NC(=C(C#N)C(=O)OCC)c1sc(C)nc1C(F)(F)F (stereo not shown) [Compound 1022],4.49^[a]
4,COC(=O)C(C#N)=C(Nc1ccc2ncsc2c1)c1sc(C)nc1C(F)(F)F [Compound 465],2.64^[a]
5,CCOC(=O)C(C#N)=C(NC(C)c1nccs1)c1cc(Cl)cc(Cl)n1 (racemic) [Compound 265],3.31^[a]
6,CCOCC(NC(=C(C#N)C(=O)OCC)c1cccnc1Cl)C(C)C (stereo not shown) [Compound 1431],3.69^[a]
7,CCOC(=O)C(C#N)=C(NC(C)(C)C#Cc1ccc(C#N)cc1)c1sc(C)nc1C(F)(F)F [Compound 1093],4.04^[a]
8,CCOC(=O)C(C#N)=C(NC(C)c1cnccn1)c1cccnc1Cl (racemic) [Compound 1415],2.13^[a]
9,C=CCCCC(C=C)NC(=C(C#N)C(=O)OCC)c1ccsc1I (stereo not shown) [Compound 1024],4.65^[a]
10,CCOC(=O)C(C#N)=C(NC(C)COc1c(C)cccc1C)c1sccc1Br (racemic) [Compound 670],4.86^[a]
11,COC(=O)C(C#N)=C(NC(C)c1ccc(OC)c(OC)c1)c1cccnc1Cl (stereo not shown) [Compound 400],2.34^[a]
12,CCOC(=O)C(C#N)=C(NC(C)c1nccs1)c1cnn(C)c1Cl (stereo not shown) [Compound 1501],2.42^[a]
13,CCOC(=O)C(C#N)=C(Nc1ccccc1SC)c1cc(C)oc1C [Compound 414],3.84^[a]
14,CCOC(=O)C(C#N)=C(NC(C)c1cccs1)c1sccc1Br (stereo not shown) [Compound 211],3.92^[a]
15,CCOC(=O)C(C#N)=C(NC(C)c1ccc(C)cc1)c1cccnc1Cl (stereo not shown) [Compound 1150],3.87^[a]
16,CCOC(=O)/C(C#N)=C(\NCc1nccs1)c1sccc1Cl [Compound 153],2.63^[a]
17,CC#CC(C)NC(=C(C#N)C(=O)OCC)c1cccnc1Cl (stereo not shown) [Compound 1052],2.86^[a]
18,CCOC(=O)C(C#N)=C(NC(C)C1CC1)c1cn(C)nc1C(F)(F)F (racemic) [Compound 894],3.29^[a]
19,CCOC(=O)C(C#N)=C(NC(C)c1ccc(Cl)cc1)c1sc(C)nc1C(F)(F)F (stereo not shown) [Compound 433],4.27^[a]
20,CCOC(=O)C(C#N)=C(NC(C)c1nccs1)c1ccnc2ccccc12 (stereo not shown) [Compound 1502],2.5^[a]
21,CCOC(=O)C(C#N)=C(Nc1ccc(OC(F)F)cc1)c1cccnc1Cl [Compound 1169],3.19^[a]
22,CCOC(=O)C(C#N)=C(NC(C)c1nccs1)c1cn(C)cc1C(F)(F)F (racemic) [Compound 271],2.97^[a]
23,CCOC(=O)C(C#N)=C(NC(C(=O)OC)C(C)C)c1ccsc1Br (stereo not shown) [Compound 715],3.48^[a]
24,CCOC(=O)C(C#N)=C(NC(C)CC(F)(F)F)c1cn(C)nc1C(F)F (stereo not shown) [Compound 1346],2.77^[a]

row,Compound,Log P
1,CCOC(=O)C(C#N)=C(NC(C)CC(=O)Nc1ccccc1C)c1cccnc1Cl (stereo not shown) [Compound 1192],2.8^[a]
2,CCOC(=O)C(C#N)=C(NCc1nccs1)c1cnc(Cl)cc1Cl [Compound 227],2.68^[a]
3,CCCCCC(C)NC(=C(C#N)C(=O)OC)c1sc(C)nc1C(F)(F)F (stereo not shown) [Compound 850],4.41^[a]
4,CCOC(=O)C(C#N)=C(NC(C)COCc1ccccc1Cl)c1cn(C)nc1C(F)F (racemic) [Compound 1241],3.83^[a]
5,CCOC(=O)C(C#N)=C(NC1(c2c(F)cccc2F)CC1)c1cn(C)nc1C(C)F (racemic) [Compound 549],3.23^[a]
6,CCOC(=O)C(C#N)=C(NC1CCC1)c1cn(C)nc1C(Cl)Cl [Compound 1566],3.09^[a]
7,CCNC(=O)C(C)NC(=C(C#N)C(=O)OCC)c1cn(C)nc1C(F)F (racemic) [Compound 1256],1.88^[a]
8,CCOC(=O)C(C#N)=C(NC(C)C(C)C)c1ccnc(Cl)c1F (stereo not shown) [Compound 1311],3.81^[a]
9,CCOC(=O)C(C#N)=C(Nc1ccc(SC)cc1)c1cccnc1Cl [Compound 1170],3.37^[a]
10,C=CCCCC(C=C)NC(=C(C#N)C(=O)OCC)c1cn(C)nc1C(F)(F)F (stereo not shown) [Compound 1021],4.14^[a]
11,COC(=O)C(C#N)=C(Nc1ccccc1OC(C)C)c1sc(C)nc1C(F)(F)F [Compound 514],3.96^[a]
12,CCOC(=O)C(C#N)=C(NC(C)C(C)C)c1cccnc1C(F)F (stereo not shown) [Compound 981],3.15^[a]
13,CCOC(=O)C(C#N)=C(NC(C)c1nccs1)c1sccc1Br (stereo not shown) [Compound 85],3.13^[a]
14,CCOC(=O)C(C#N)=C(NC(c1cc2ccccc2s1)C(F)(F)F)c1ccsc1I (racemic) [Compound 165],4.81^[a]
15,CCOC(=O)C(C#N)=C(NC1C2CCCCC21)c1cccnc1Cl (stereo not shown) [Compound 1083],3.73^[a]
16,CCOC(=O)C(C#N)=C(NC(C)CSc1cc(Cl)ccc1Cl)c1cn(C)nc1C(F)F (racemic) [Compound 1235],4.08^[a]
17,C=CCCCC(C=C)NC(=C(C#N)C(=O)OCC)c1sccc1Cl (stereo not shown) [Compound 1023],4.65^[a]
18,CCOC(=O)C(C#N)=C(Nc1ccc(OC(F)F)cc1)c1sccc1C(F)(F)F [Compound 461],3.78^[a]
19,CCOC(=O)C(C#N)=C(NCc1ccccn1)c1c(C)nn(C)c1Cl [Compound 87],2.02^[a]
20,CCOC(=O)C(C#N)=C(NC(C(=O)OC)C(C)C)c1ccsc1Br (stereo not shown) [Compound 716],3.71^[a]
21,CCOC(=O)C(C#N)=C(NCc1ncc(C)s1)c1sccc1Br [Compound 220],3.04^[a]
22,CCOC(=O)C(C#N)=C(NC(C)COc1ccccc1)c1cccnc1Cl (stereo not shown) [Compound 1161],3.58^[a]
23,CCOC(=O)C(C#N)=C(NC(C)c1nccs1)c1cnccc1Cl (racemic) [Compound 258],2.78^[a]
24,CCOC(=O)C(C#N)=C(NC(C)C(N)=O)c1ccsc1I (stereo not shown) [Compound 647],1.91^[a]

row,Compound,Log P
1,CCOC(=O)C(C#N)=C(NC(C)C(C)C)c1c(C(F)(F)F)nn(C)c1F (stereo not shown) [Compound 999],3.93^[a]
2,CCOC(=O)C(C#N)=C(NC(C)COc1c(C)cccc1C)c1cccnc1Cl (stereo not shown) [Compound 1180],4.26^[a]
3,COC(=O)C(C#N)=C(Nc1ccc(OC(F)F)cc1)c1sc(C)nc1C(F)(F)F [Compound 515],3.31^[a]
4,CCOC(=O)C(C#N)=C(NCc1ccccn1)c1nsc(Cl)c1Cl [Compound 70],2.84^[a]
5,CCC(NC(=C(C#N)C(=O)OC)c1cccnc1Cl)c1ccc(Cl)cc1 (stereo not shown) [Compound 376],3.58^[a]
6,CCOC(=O)C(C#N)=C(NC(C)(C)C(=O)OC)c1sccc1C(F)(F)F [Compound 694],3.37^[a]
7,CCOC(=O)C(C#N)=C(Nc1ccccc1SC)c1sc(C)nc1C(F)(F)F [Compound 432],3.8^[a]
8,C=CCNC(=C(C#N)C(=O)OCC)c1cn(C)nc1C(F)F [Compound 1127],2.35^[a]
9,CCOC(=O)C(C#N)=C(NC(C)COc1cccc(C(F)(F)F)c1)c1cn(C)nc1C(F)F (racemic) [Compound 1237],3.92^[a]
10,CCOC(=O)C(C#N)=C(NC(C)c1ccccn1)c1cn(C)cc1C(F)(F)F (racemic) [Compound 270],2.92^[a]
11,CCOC(=O)C(C#N)=C(NC(C)(C)c1ccc(Cl)cc1)c1cn(C)nc1C(F)F [Compound 1215],3.71^[a]
12,CCOC(=O)C(C#N)=C(NC1CC1CC)c1cccnc1Cl (stereo not shown) [Compound 1062],3.27^[a]
13,CCOC(=O)C(C#N)=C(NC(C)COCC(C)(C)C)c1cccnc1Cl (stereo not shown) [Compound 1178],4.34^[a]
14,CCOC(=O)C(C#N)=C(NCc1ncc(C)s1)c1sccc1C(F)(F)F [Compound 217],3.19^[a]
15,CCOC(=O)C(C#N)=C(NC(C)CCCC(C)C)c1sccc1C(F)(F)F (stereo not shown) [Compound 926],5.39^[a]
16,CCOC(=O)C(C#N)=C(NC(C)c1ccc(Cl)cc1)c1sccc1Br (stereo not shown) [Compound 365],4.42^[a]
17,CCOC(=O)C(C#N)=C(NC(C)C1CC1)c1sc(C)nc1C(F)(F)F (stereo not shown) [Compound 886],3.61^[a]
18,COC(=O)C(C#N)=C(NC1(c2ccc(Cl)cc2)CC1)c1cccnc1Cl [Compound 384],3.19^[a]
19,CCNC(=O)C(C#N)=C(NC(C)c1ccccn1)c1ccnc(C)c1Cl (racemic) [Compound 1277],2.7^[a]
20,CCOC(=O)C(C#N)=C(NC(C)c1ccccn1)c1sc(C)nc1C(F)(F)F (racemic) [Compound 146],3.12^[a]
21,C#CC(C)NC(=C(C#N)C(=O)OCC)c1cccnc1Cl (stereo not shown) [Compound 1181],2.66^[a]
22,CCNC(=O)C(C#N)=C(NC(C)C(C)C)c1ccnc(Br)c1Cl (stereo not shown) [Compound 1210],3.6^[a]
23,COC(=O)C(C#N)=C(NC(C)c1nccs1)c1sc(C)nc1C(F)(F)F (stereo not shown) [Compound 17],2.78
24,CCOC(=O)C(C#N)=C(NC(C)C1CC1)c1ccncc1Cl (racemic) [Compound 898],3.03^[a]

# Same assay, conditions: pH 7.5
row,Compound,Log P
1,CCOC(=O)C(C#N)=C(NC(C)C(C)C)c1cccnc1 (stereo not shown) [Compound 1504],2.67
2,COC(=O)C(C#N)=C(NC(C)c1nccs1)c1sc(C)nc1C(F)(F)F (stereo not shown) [Compound 17],2.63
